≈ marks a conversion by molar mass, not a printed value. Read-outs that look alike come from different tables or passages of the source.
Columns and labels:
M. fermentans = type: cell-based; settings: M. fermentans (15 isolates)
S. pyogenes [1] = experiment: MIC of the strains of the mouse systemic infection model; type: cell-based; settings: Streptococcus pyogenes
S. pyogenes ATCC 8668 = experiment: mouse subcutaneous abscess model; type: in vivo; settings: 48 hr. post infection
Protocol: Example. Mouse Subcutaneous Abscess. Bacteria were prepared from an overnight plate culture by re-suspending in saline and adjusting the suspension to a 0.1 OD at 625 nm of a 1:10 dilution. The adjusted bacterial suspension was mixed 1:2 with cyclodextran beads prepared as per package instructions. The right flanks of the mice were shaven and injected subcutaneously with 0.2 ml of the bacterial inoculum. Two hours post infection mice were treated via oral gavage with either test article or control drug. 48 hours post infection, mice were euthanized, abscesses aseptically removed, homogenized, serially diluted and plated on bacterial growth agar. After overnight incubation, colonies were counted and CFUs/gram of abscess were determined.
Example. Mouse Subcutaneous Abscess˜S. pyogenes ATCC 8668 (Average Log10 CFU/gram of Abscess). Abscess processing 48 hours post infection.

N. meningitidis = experiment: MIC, CLSI broth microdilution, invasive isolates; type: cell-based; settings: Neisseria meningitidis; 62 N. meningitidis isolates
Protocol: Example. […] Colonization of the nasopharynx (NP) by NM can lead to invasive meningococcal disease. Chemoprophylaxis is used to eradicate NP colonization and prevent transmission to nonimmune contacts. […] 62 isolates (91.9% blood culture) of NM were collected from 29 medical centers in North and South America and Europe (1997-2008). […] Serological identification was performed for serogroups (SGs) B, C, Y and W135.

S. pyogenes [2] = type: cell-based; set-up: MIC: unit not given beside the values; settings: for MIC50 / MIC90: Streptococcus pyogenes
H. influenzae ATCC 49247 = experiment: post-antibiotic effect (PAE) testing; settings: H. influenzae ATCC 49247; 4X MIC; exposure 1 hour
S. pneumoniae [3] = experiment: neutropenic mouse thigh infection; type: in vivo; settings: PO
Protocol: Example. Neutropenic Mouse Thigh Infection. Mice were rendered neutropenic with IP injections of cyclophosamide at day −4 and day −1 of 150 mg/Kg and 100 mg/Kg, respectively. On day 0 mice were infected with approximately 5×10^5 CFU/ml of bacteria in a 0.1 ml volume into the right thigh. At 1.5 hours post infection mice received treatment via oral gavage. One group of infected mice were euthanized and thigh processed for bacterial titers to serve as T=0 controls. Twenty-four hours post treatment, the remaining mice were euthanized, thighs aseptically removed, weighed, homogenized, serially diluted and plated on bacterial growth media. CFUs per gram of thigh were calculated after overnight incubation of bacterial plates. The amount of test article required to achieve 1, 2, and 3 loge reductions from 24 hour control thighs were calculated. Additional studies were performed that fractionated the single treatment dose (Q24) into two (Q12), three (Q8) and four (Q6) equivalent doses to determine the pharmacodynamic nature of this compound. Further analysis includes static dose, EC50, 1 log kill and maximal effect (Emax).

S. pyogenes [4] = experiment: mouse systemic infection model (PD50); type: in vivo
S. pneumoniae [5] = experiment: microbe, parasite or virus in culture; type: cell-based; settings: for MIC: Streptococcus pneumoniae
[6] = tested on: viridans group streptococci (VGS); type: cell-based; settings: VGS (51)
M. hominis = type: cell-based; settings: M. hominis (13 isolates)
M. genitalium = type: cell-based; settings: M. genitalium (5 isolates)
[7] = S. pyogenes (macrolide susceptible)
[8] = S. pyogenes TEL R, Macr-R, 10 strains
[9] = S. pyogenes TEL S, Macr-R, 30 strains
[10] = S. pyogenes TEL S, Macr-S, 10 strains

`CC[C@H]1OC(=O)[C@H](C)C(=O)[C@H](C)[C@@H](O[C@@H]2O[C@H](C)C[C@H](N(C)C)[C@H]2O)[C@](C)(OC)C[C@@H](C)C(=O)[C@H](C)[C@H]2N(CCCCn3cnc(-c4cccnc4)c3)C(=O)O[C@]12C` [TEL, telithromycin] was tested, and the “MIC Range” value (M. fermentans) was 0.002 to 0.031 µg/mL, the MIC50 (M. fermentans; Mycoplasmopsis fermentans) was at most 0.008 µg/mL and the MIC90 (M. fermentans; Mycoplasmopsis fermentans) was 0.016 µg/mL (≈ 0.0197 µM). For the same molecule, the MIC (S. pyogenes [1]; S. pyogenes (erythromycin R)) was 1 µg/mL, the MIC (S. pyogenes [1]; [7]) was 0.015 µg/mL and the “Average Log10 CFU/gram of Abscess” value (S. pyogenes ATCC 8668; 10 mg/Kg) was 7.06 Log10 CFU/gram. The “Average Log10 CFU/gram of Abscess” value (S. pyogenes ATCC 8668; 20 mg/Kg) was 6.10 Log10 CFU/gram, the MIC (N. meningitidis) was 0.015 to 0.12 µg/mL (≈ 0.0185 to 0.148 µM) and the MIC50 (N. meningitidis) was at most 0.015 µg/mL. The MIC90 (N. meningitidis) was 0.03 µg/mL (≈ 0.0369 µM), the MIC (S. pyogenes [2]; MAC-R S. pyogenes 3029) was “(16)” and the MIC50 (S. pyogenes [2]; [8]) was 32 µg/mL (≈ 39.4 µM). For the same molecule, the MIC90 (S. pyogenes [2]; [8]) was 32 µg/mL (≈ 39.4 µM), the MIC50 (S. pyogenes [2]; [9]) was 0.125 µg/mL (≈ 0.154 µM) and the MIC90 (S. pyogenes [2]; [9]) was 0.5 µg/mL (≈ 0.616 µM). The MIC50 (S. pyogenes [2]; [10]) was 0.03 µg/mL (≈ 0.0369 µM), the MIC90 (S. pyogenes [2]; [10]) was 0.03 µg/mL (≈ 0.0369 µM) and the PAE (H. influenzae ATCC 49247) was 1.2 h. The “Max. change in log10CFUs from 24 hr. controls” value (S. pneumoniae [3]; S. pneumoniae 1629) was −6.82 log10CFUs, the “Dose for 2 log10 Reduction from 24 hour controls” value (S. pneumoniae [3]; S. pneumoniae 1629, QD) was 13.2 mg/Kg and the “Max. change in log10CFUs from 24 hr. controls” value (S. pneumoniae [3]; S. pneumoniae 6303) was −5.27 log10CFUs. For the same molecule, the PD50 (S. pyogenes [4]; S. pyogenes (erythromycin R)) was 4.4 mg/kg, the PD50 (S. pyogenes [4]; [7]) was 7.8 mg/kg and the “strains with resistant clones / strains tested” value (S. pneumoniae [5]; S. pneumoniae) was 5/8. The MIC (S. pneumoniae [5]; read-out: Initial MIC, strain 24 Macrolide-R [erm(B)], parent) was 0.25 µg/mL (≈ 0.308 µM), the MIC (S. pneumoniae [5]; read-out: Initial MIC, strain 1076 Macrolide-R [erm(B)&mef(A)], parent) was 0.5 µg/mL (≈ 0.616 µM) and the MIC (S. pneumoniae [5]; read-out: Initial MIC, strain 1077 Macrolide-S, parent) was 0.004 µg/mL (≈ 0.00493 µM). It also gave an MIC (S. pneumoniae [5]; read-out: Initial MIC, strain 1635 Macrolide-R [erm(A)], parent) of 0.004 µg/mL (≈ 0.00493 µM), an MIC (S. pneumoniae [5]; read-out: Initial MIC, strain 2686 Macrolide-R [L4 mutation], parent) of 0.06 µg/mL (≈ 0.0739 µM) and an MIC (S. pneumoniae [5]; read-out: Initial MIC, strain 3009 Macrolide-R [23SrRNA mutation], parent) of 0.016 µg/mL (≈ 0.0197 µM). It also gave an MIC (S. pneumoniae [5]; read-out: Initial MIC, strain 3665 Macrolide-R [mef(A)], parent) of 0.125 µg/mL (≈ 0.154 µM), an MIC (S. pneumoniae [5]; read-out: Initial MIC, strain 7127 Macrolide-S [S20N in L4, A105V in L22], parent) of 0.008 µg/mL (≈ 0.00985 µM) and an MIC (S. pneumoniae [5]; read-out: MIC of parents of resistant clones, S. pneumoniae (CEM-101: 7 strains)) of 0.004 to 0.5 µg/mL. The MIC (S. pneumoniae [5]; read-out: Parental MICs, S. pneumoniae, 8 strains with varying resistotypes) was 0.004 to 0.5 µg/mL (≈ 0.00493 to 0.616 µM), the MIC (S. pneumoniae [5]; read-out: Selected Resistance MIC, strain 24 Macrolide-R [erm(B)], after serial passages in the drug) was 32 µg/mL (≈ 39.4 µM) and the MIC (S. pneumoniae [5]; read-out: Selected Resistance MIC, strain 1076 Macrolide-R [erm(B)&mef(A)], after serial passages in the drug) was over 64 µg/mL. For the same molecule, the MIC (S. pneumoniae [5]; read-out: Selected Resistance MIC, strain 1077 Macrolide-S, after serial passages in the drug) was 0.25 µg/mL (≈ 0.308 µM), the MIC (S. pneumoniae [5]; read-out: Selected Resistance MIC, strain 1635 Macrolide-R [erm(A)], after serial passages in the drug) was 0.008 µg/mL (≈ 0.00985 µM) and the MIC (S. pneumoniae [5]; read-out: Selected Resistance MIC, strain 2686 Macrolide-R [L4 mutation], after serial passages in the drug) was 0.5 µg/mL (≈ 0.616 µM). The MIC (S. pneumoniae [5]; read-out: Selected Resistance MIC, strain 3009 Macrolide-R [23SrRNA mutation], after serial passages in the drug) was 0.03 µg/mL (≈ 0.0369 µM), the MIC (S. pneumoniae [5]; read-out: Selected Resistance MIC, strain 3665 Macrolide-R [mef(A)], after serial passages in the drug) was 2 µg/mL (≈ 2.46 µM) and the MIC (S. pneumoniae [5]; read-out: Selected Resistance MIC, strain 7127 Macrolide-S [S20N in L4, A105V in L22], after serial passages in the drug) was 0.06 µg/mL (≈ 0.0739 µM). For the same molecule, the “days until resistant clones (MIC increase)” value (S. pneumoniae [5]; daily passages, min. 14, max. 50) was 14 to 38 days, the “Retest MIC after 10 Antibiotic-free Subcultures” value (S. pneumoniae [5]; strain 24 Macrolide-R [erm(B)], clone selected with CEM-101) was 0.125 µg/mL and the “Retest MIC after 10 Antibiotic-free Subcultures” value (S. pneumoniae [5]; strain 24 Macrolide-R [erm(B)], clone selected with TEL) was 16 µg/mL. The “Retest MIC after 10 Antibiotic-free Subcultures” value (S. pneumoniae [5]; strain 1076 Macrolide-R [erm(B)&mef(A)], clone selected with CEM-101) was 32 µg/mL, the “Retest MIC after 10 Antibiotic-free Subcultures” value (S. pneumoniae [5]; strain 1076 Macrolide-R [erm(B)&mef(A)], clone selected with TEL) was over 64 µg/mL and the “Retest MIC after 10 Antibiotic-free Subcultures” value (S. pneumoniae [5]; strain 1077 Macrolide-S, clone selected with AZI) was 0.125 µg/mL. The “Retest MIC after 10 Antibiotic-free Subcultures” value (S. pneumoniae [5]; strain 1077 Macrolide-S, clone selected with CEM-101) was 0.06a μg/ml, the “Retest MIC after 10 Antibiotic-free Subcultures” value (S. pneumoniae [5]; strain 1077 Macrolide-S, clone selected with CLN) was 0.06 µg/mL and the “Retest MIC after 10 Antibiotic-free Subcultures” value (S. pneumoniae [5]; strain 1077 Macrolide-S, clone selected with TEL) was 0.25 µg/mL. For the same molecule, the “Retest MIC after 10 Antibiotic-free Subcultures” value (S. pneumoniae [5]; strain 1635 Macrolide-R [erm(A)], clone selected with AZI) was 0.004 µg/mL, the “Retest MIC after 10 Antibiotic-free Subcultures” value (S. pneumoniae [5]; strain 1635 Macrolide-R [erm(A)], clone selected with CEM-101) was 0.03 µg/mL and the “Retest MIC after 10 Antibiotic-free Subcultures” value (S. pneumoniae [5]; strain 1635 Macrolide-R [erm(A)], clone selected with CLN) was 0.008 µg/mL. For the same molecule, the “Retest MIC after 10 Antibiotic-free Subcultures” value (S. pneumoniae [5]; strain 1635 Macrolide-R [erm(A)], clone selected with CLR) was 0.016 µg/mL, the “Retest MIC after 10 Antibiotic-free Subcultures” value (S. pneumoniae [5]; strain 2686 Macrolide-R [L4 mutation], clone selected with CEM-101) was 0.25 µg/mL and the “Retest MIC after 10 Antibiotic-free Subcultures” value (S. pneumoniae [5]; strain 2686 Macrolide-R [L4 mutation], clone selected with CLR) was 0.06 µg/mL. For the same molecule, the “Retest MIC after 10 Antibiotic-free Subcultures” value (S. pneumoniae [5]; strain 2686 Macrolide-R [L4 mutation], clone selected with TEL) was 0.5 µg/mL, the “Retest MIC after 10 Antibiotic-free Subcultures” value (S. pneumoniae [5]; strain 3009 Macrolide-R [23SrRNA mutation], clone selected with CEM-101) was 0.06 µg/mL and the “Retest MIC after 10 Antibiotic-free Subcultures” value (S. pneumoniae [5]; strain 3009 Macrolide-R [23SrRNA mutation], clone selected with CLR) was 0.06 µg/mL. The “Retest MIC after 10 Antibiotic-free Subcultures” value (S. pneumoniae [5]; strain 3665 Macrolide-R [mef(A)], clone selected with CEM-101) was 0.25 µg/mL, the “Retest MIC after 10 Antibiotic-free Subcultures” value (S. pneumoniae [5]; strain 3665 Macrolide-R [mef(A)], clone selected with CLR) was 0.06 µg/mL and the “Retest MIC after 10 Antibiotic-free Subcultures” value (S. pneumoniae [5]; strain 3665 Macrolide-R [mef(A)], clone selected with TEL) was 0.25 µg/mL. For the same molecule, the “Retest MIC after 10 Antibiotic-free Subcultures” value (S. pneumoniae [5]; strain 7127 Macrolide-S [S20N in L4, A105V in L22], clone selected with AZI) was 0.016 µg/mL, the “Retest MIC after 10 Antibiotic-free Subcultures” value (S. pneumoniae [5]; strain 7127 Macrolide-S [S20N in L4, A105V in L22], clone selected with CEM-101) was 0.06 µg/mL and the “Retest MIC after 10 Antibiotic-free Subcultures” value (S. pneumoniae [5]; strain 7127 Macrolide-S [S20N in L4, A105V in L22], clone selected with CLN) was 0.008 µg/mL. For the same molecule, the “Retest MIC after 10 Antibiotic-free Subcultures” value (S. pneumoniae [5]; strain 7127 Macrolide-S [S20N in L4, A105V in L22], clone selected with CLR) was 0.008 µg/mL, the “Retest MIC after 10 Antibiotic-free Subcultures” value (S. pneumoniae [5]; strain 7127 Macrolide-S [S20N in L4, A105V in L22], clone selected with TEL) was 0.03 µg/mL and the MIC50 [6] was 0.015 µg/mL (≈ 0.0185 µM). The MIC90 [6] was 0.25 µg/mL (≈ 0.308 µM), the “MIC Range” value [6] was “≦0.008-0.5 μg/ml” and the “MIC Range” value (M. hominis) was 0.125 to 0.5 µg/mL. For the same molecule, the MIC50 (M. hominis; Metamycoplasma hominis, read-out: MIC50) was 0.25 µg/mL (≈ 0.308 µM), the MIC90 (M. hominis; Metamycoplasma hominis, read-out: MIC90) was 0.5 µg/mL (≈ 0.616 µM) and the “MIC Range” value (M. genitalium) was “≦0.00003-0.00025 μg/mL”.

— patent US9901592B2 (priority 2008, dated 2018)
